The values below come from ChEMBL document CHEMBL1201862, “PubChem BioAssay data set” (2004).

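Where inhibition never reached the appropriate level, the endpoint shown equals the highest concentration tested. Otherwise, values were interpolated linearly from a five-concentration, 48-hour dose response in 96-well plates. GI50 is the concentration that inhibits growth by half.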 Activity calls are given as the source filed them. Cut-off read from the data, not from the text of the source: active = GI50 up to about 1.1 µM and inactive = higher.

Test systems include SK-OV-3; MDA-N; SN12C; KM12; A549; BT-549; ACHN; UACC-257; MOLT-4; HCT-15; TK-10; Malme-3M; MDA-MB-435; SF-295; SK-MEL-28; MCF7; COLO 205; 786-0; NCI-H23; NCI-H460.
Assay in all cases: growth of human tumour cells (NCI), 48 h

On to `CC(C)=CCC\C(C)=C/C=C/C(C)=C\C=C\C(C)=C/C=C/C=C(C)\C=C\C=C(C)/C=C/C=C(/C)CCC=C(C)C`, for which the GI50 in the experiment with SK-OV-3, in the experiment on MDA-N, with SN12C, in the experiment with KM12, in the experiment with A549 and in the experiment on BT-549 was > 100 µM (inactive) throughout. Moreover, the GI50 was > 100 µM (inactive) in the experiment on ACHN; > 100 µM (inactive) in the experiment with UACC-257; > 100 µM (inactive) in the experiment with MOLT-4; greater than 100 µM in the experiment on HCT-15; > 100 µM (inactive) in the experiment with TK-10; > 100 µM (inactive) in the experiment on Malme-3M. In addition, the GI50 with MDA-MB-435, in the experiment on SF-295, in the experiment on SK-MEL-28, with MCF7, with COLO 205 and with 786-0 was > 100 µM (inactive) in each case.

Consider `COC(=O)/C=C1\CCC(C)(C(=O)NS(=O)(=O)c2ccc(C)cc2)C1(C)C` (stereo not given), for which the GI50 in the experiment on SK-OV-3, with MDA-N, in the experiment with SN12C, in the experiment on KM12, in the experiment on A549 and in the experiment on BT-549 was > 100 µM (inactive) each time. The GI50 with ACHN is > 100 µM (inactive); in the experiment with NCI-H23, > 100 µM (inactive); with NCI-H460, > 100 µM (inactive); in the experiment with UACC-257, > 100 µM (inactive); in the experiment with MOLT-4 it was > 100 µM (inactive); in the experiment on HCT-15, greater than 100 µM. For the same compound, the GI50 was > 100 µM (inactive) with TK-10; > 100 µM (inactive) with Malme-3M; 4.48 µM (inactive) in the experiment on MDA-MB-435; > 100 µM (inactive) in the experiment with SF-295; > 100 µM (inactive) in the experiment on MCF7; > 100 µM (inactive) in the experiment on COLO 205. The GI50 in the experiment with 786-0 is > 100 µM (inactive).

Take `CC(=O)O[C@H]1C(=O)[C@@]2(C)C(C(OC(=O)c3ccccc3)[C@]3(O)CC(OC(=O)C(O)C(NC(=O)c4ccccc4)c4cccc(Cl)c4)C(C)=C1C3(C)C)[C@]1(OC(C)=O)CO[C@@H]1C[C@@H]2O` (stereo not given in full): the GI50 in the experiment with SK-OV-3 was > 10 µM (inactive); with MDA-N it was 0.984 µM (active); in the experiment with SN12C, 4.17 µM (inactive); in the experiment on KM12, 3.72 µM (inactive); with A549, 7.64 µM (inactive); in the experiment on BT-549, > 10 µM (inactive). Besides, the GI50 with ACHN was > 10 µM (inactive); in the experiment with NCI-H23, 4.39 µM (inactive); in the experiment with NCI-H460 it was 5.28 µM (inactive); in the experiment with UACC-257 it was 9.46 µM (inactive); with MOLT-4, 4.8 µM (inactive); with HCT-15 it was greater than 10 µM. Also, the GI50 with TK-10 is > 10 µM (inactive); in the experiment with Malme-3M, > 10 µM (inactive); in the experiment on MDA-MB-435, 1.55 µM (inactive); in the experiment with SF-295 it was > 10 µM (inactive); in the experiment with MCF7 it was 3.06 µM (inactive); with COLO 205 it was 3.1 µM (inactive). Besides, the GI50 in the experiment with 786-0 was > 10 µM (inactive).

`N#Cc1ccc(/C=[N+](/C=c2ccc(=C=[N-])cc2)N(CCO)C2=NCCN2)cc1`: the GI50 in the experiment on SK-OV-3, in the experiment on MDA-N, in the experiment on SN12C, with KM12, in the experiment with A549 and in the experiment on BT-549 was > 100 µM (inactive) each time. Also, the GI50 in the experiment with ACHN was > 100 µM (inactive); with NCI-H23, > 100 µM (inactive); in the experiment on NCI-H460, > 100 µM (inactive); in the experiment with UACC-257, > 100 µM (inactive); in the experiment on MOLT-4, > 100 µM (inactive); in the experiment on HCT-15, greater than 100 µM. Besides, the GI50 in the experiment on TK-10, in the experiment on Malme-3M, with MDA-MB-435, in the experiment with SF-295, in the experiment with MCF7 and in the experiment on COLO 205 was > 100 µM (inactive) throughout. Besides, in the experiment on 786-0, the GI50 is > 100 µM (inactive).
